Reference: patent US20030065039A1, “Biologically active 1,3-bis-aromatic-prop-2-en-1-ones, 1,3-bis-aromatic-propan-1-ones, and 1,3-bis-aromatic-prop-2-yn-1-ones” (Statens Serum Institute, priority 1997, published 2003)
≈ marks a conversion by molar mass, not a printed value.

Tests used:
[1] = tested on: Plasmodium falciparum; assay: Plasmodium falciparum Assay; type: cell-based; conditions: Plasmodium falciparum; 3-H-hypoxanthine incorporation, 48 hours; read-out: Plasmodium IC50 ± SD
Method in brief: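 Parasitized erythrocytes (~1% parasitemia, 5×10^8/ml) cultured 48 h in RPMI with test compound, with 3H-hypoxanthine added for the last 24 h. Growth inhibition read as 3H-hypoxanthine incorporation into parasite DNA by liquid scintillation; uninfected and untreated infected cultures run in parallel.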

[2] = tested on: Leishmania promastigotes; assay: Leishmania promastigotes Assay; type: cell-based; conditions: Leishmania; promastigotes, 3H-thymidine uptake; read-out: Leishmania IC50 ± SD
Method in brief: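 L. major (WHO Iran vaccine strain) and L. donovani MHOM/KE/85/NLB 274 promastigotes (3×10^6/ml, day 3 and 6 cultures) exposed to compound 2 h at 26 °C, then 3H-thymidine 18 h; incorporation counted by scintillation. Microscopic counts and flagellar motility also assessed.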

[3] = tested on: human lymphocytes; assay: Lymphocyte Proliferation Assay; type: cell-based; conditions: Lymphocyte; PHA provoked proliferation of human lymphocytes; read-out: Lymphocytes IC50 ± SD
Method in brief: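 Ficoll-isolated human blood mononuclear cells (0.63×10^5/ml) in RPMI 1640 with 5% FCS were cultured in triplicate with test compound and PHA or PPD for 3 or 7 days. Proliferation measured by ^3H-thymidine incorporation over the final 24 h; triplicate median recorded.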

[4] = molecular target: T1, Helicobacter pylori fumarate reductase (Helicobacter pylori, UniProt O06913); type: biochemical; conditions: at concentration of 0.2 mM
T1 construct: Membrane associated proteins were solubilized from the pellet in 150 mM KCl, pH 7.0; endogenous in cells; host or cells: Helicobacter pylori 007 strain; KCl-solubilised fraction (or sonicate supernatant)
T1 sequence (O06913 1-714): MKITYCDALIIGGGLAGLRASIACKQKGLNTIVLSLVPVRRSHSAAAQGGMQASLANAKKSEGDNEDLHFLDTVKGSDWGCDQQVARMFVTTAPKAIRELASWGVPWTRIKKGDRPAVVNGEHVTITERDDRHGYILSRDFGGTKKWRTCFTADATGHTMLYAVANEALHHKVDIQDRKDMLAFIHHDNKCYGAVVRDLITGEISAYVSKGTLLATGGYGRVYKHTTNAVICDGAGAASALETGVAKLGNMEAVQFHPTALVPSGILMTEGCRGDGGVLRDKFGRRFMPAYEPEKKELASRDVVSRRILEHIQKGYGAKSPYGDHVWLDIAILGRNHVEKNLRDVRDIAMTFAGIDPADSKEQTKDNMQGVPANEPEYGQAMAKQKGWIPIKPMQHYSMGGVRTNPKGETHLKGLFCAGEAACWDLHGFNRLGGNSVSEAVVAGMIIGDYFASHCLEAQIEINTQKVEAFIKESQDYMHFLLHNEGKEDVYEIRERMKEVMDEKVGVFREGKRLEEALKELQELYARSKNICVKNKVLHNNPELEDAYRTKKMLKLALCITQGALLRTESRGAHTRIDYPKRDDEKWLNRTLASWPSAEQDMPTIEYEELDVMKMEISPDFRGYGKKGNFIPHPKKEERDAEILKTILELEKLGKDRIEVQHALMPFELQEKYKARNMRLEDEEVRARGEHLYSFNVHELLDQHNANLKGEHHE
T1 sequence (O06914 1-245 partner): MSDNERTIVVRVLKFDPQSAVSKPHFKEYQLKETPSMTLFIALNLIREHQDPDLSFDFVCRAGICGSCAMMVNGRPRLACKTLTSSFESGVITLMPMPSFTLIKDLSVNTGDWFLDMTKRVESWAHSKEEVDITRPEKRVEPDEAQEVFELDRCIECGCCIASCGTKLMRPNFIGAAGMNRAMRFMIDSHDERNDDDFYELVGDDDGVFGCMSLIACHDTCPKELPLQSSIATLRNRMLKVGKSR
T1 sequence (O06912 1-255 partner): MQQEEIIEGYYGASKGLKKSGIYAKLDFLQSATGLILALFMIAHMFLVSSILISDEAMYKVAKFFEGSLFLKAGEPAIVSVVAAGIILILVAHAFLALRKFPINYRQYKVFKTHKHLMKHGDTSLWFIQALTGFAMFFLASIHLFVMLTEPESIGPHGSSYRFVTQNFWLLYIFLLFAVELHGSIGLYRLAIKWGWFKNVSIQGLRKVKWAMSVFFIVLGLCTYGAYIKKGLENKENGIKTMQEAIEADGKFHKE
Experimental: 1) Extraction of soluble FRD: Bacteria were harvested by centrifugation at 18,000 g for 10 min at 4° C., and were washed 2 times in an isotonic phosphate saline buffer (50 mM sodium phosphate, pH 7.2, 90 mM NaCl, 5 mM Kcl). Bacteria were lysed in 5 mM Tris-HCl, pH 7.4, for 15 minutes, and centrifuged 18,000 g for 10 minutes. Membrane associated proteins were solubilized from the pellet in 150 mM KCl, pH 7.0, in ice bath for 60 min, and then the supernatant was collected after centrifugation (18,000 g for 10 minutes) for the measurement of FRD activity.
2) Extraction of FRD by sonication: Bacteria were harvested by centrifugation at 18,000 g for 10 min at 4° C., were sonicated, and then the supernatant was collected after centrifugation (18,000 g for 10 minutes) for the measurement of FRD activity.
NADH-FRD activity was determined as the rate of NADH-oxidation upon addition of 1 mM fumarate in the KCl-solubilized fraction or sonicated fraction. The reaction was monitored spectrophotometrically at 340 nm (∈=6.2 mM^−1 cm^−1) using 100 μM NADH and usually 3 mg protein in both reference and sample cuvettes. The measurement was carried out in a Shimadzu UV-190 double-beam spectrophotometer. Protein concentrations were determined using a Bio-Rad protein assay (Bio-Rad Laboratories, 200 Alfred Nobel Dr. Hercules, Calif. 94547, USA).
KCl solubilised fraction of bacteria was incubated with different concentrations of various oxygenated chalcones at 28° C. and the remaining FRD activity was measured. The IC50 values were determined as the concentration at which 50% of the activity was inhibited.

[5] = tested on: Helicobacter pylori; assay: Helicobacter species Assay (agar plate, MIC); type: cell-based
Experimental: (§1) 20 strains of Helicobacter pylori were used in an agar plate assay. The compounds were incorporated in the agar plates at different concentrations as described in the examples and were then inoculated with different strains of Helicobacter pylori followed by incubation in a microaerophilic atmosphere at 37° C. for 72 hours. The number of colony-forming units (CFU) were counted after the incubation period. The MIC values were determined as the minimal concentration required to inhibit growth of the bacteria.
(§2) Stock solutions were made at a concentration of 1 mg/ml by dissolving 1 mg of each compound in 100 μl DMSO (dimethylsulfoxide) followed by addition of 900 μl of heat-inactivated fetal claf serum (HFCS). These stock solutions were diluted with HFCS to make solutions having the following concentrations: 320 μg/ml, 160 μg/ml, 80 μg/ml, 40 μg/ml and 20 μg/ml. Dilution rows were made with 3 ml aliquots in vials containing the compounds in the following final test concentrations: 16 μg/ml, 8 μg/ml, 4 μg/ml, 2 μg/ml and 1 μg/ml. As control was used DMSO-HFCS containing an amount of DMSO equal to the amount of test compound in the solution with 320 μg/ml compound.
as §1, with “Bacteria: 20” for “20”, “concentrations” for “concentrations as described in the examples”, “and then they” for “and”, “were” for “were then”, “incubation at” for “incubation in a”, “C. in” for “C. for”
as §2, with “concentrations: 2560 μg/ml, 1280 μg/ml, 640 μg/ml,” for “concentrations:”, “160 µg/ml and” for “160 μg/ml,”, “80” for “80 μg/ml, 40 μg/ml and 20”, “concentrations: 128 μg/ml, 64 μg/ml, 32 μg/ml, 12” for “concentrations: 16”, “8” for “8 μg/ml, 4 μg/ml, 2”, “and 4” for “and 1”
Bacteria: 20 strains of Helicobacter pylori were used in an agar plate assay. The same method as described above under Experiment A was employed and MIC values were determined.

For CCCCOc1ccccc1/C=C/C(=O)c1ccc(OC)c(OC)c1OC [2-OC4H9-2′,3′,4′-OCH3, 2-butoxy-2′,3′,4′-trimethoxychalcone], the melting point was 129.4 to 130.2 °C, the IC50 [1] was 7.8 µM and the IC50 [2] was 26 ± 1 µM. It also gave an IC50 [3] of 52 ± 3 µM.

Work on COc1ccc(C(=O)/C=C/c2ccccc2O)c(OC)c1OC [2-OH-2′,3′,4′,-OCH3, 2-hydroxy-2′,3′,4′-trimethoxychalcone] yielded a melting point of 122.6 to 123 °C, an IC50 [1] of 10 µM and an IC50 [2] of 9.3 ± 1 µM. It also gave an IC50 [3] of 9 ± 0.7 µM.

In the case of O=C(CC(=O)C(F)(F)F)c1cccs1 [2-thenoyltrifluoroacetone, reference compound], the “activity of NADH-fumarate reductase” value [4] is reported as “almost completely inhibited”.

In the case of COc1cc(/C=C/C(=O)c2ccccc2N(C)C)cc(OC)c1 [2′-N(CH3)2-3,5-OCH3, 3,5-dimethoxy-2′-dimethylaminochalcone], the melting point is reported as 159.8 to 160.5 °C, the IC50 [1] is reported as 13 µM and the IC50 [2] is reported as 7.3 ± 1 µM. For the same molecule, the IC50 [3] was 5.7 ± 0.3 µM.

COc1cc(/C=C/C(=O)c2ccccc2[N+](=O)[O-])cc(OC)c1 [2′-NO2-3,5-OCH3, 3,5-dimethoxy-2′-nitrochalcone] showed a melting point of 98.4 to 98.9 °C, an IC50 [1] of 7.4 µM and an IC50 [2] of 3.4 ± 0.5 µM. The IC50 [3] was 3.7 ± 0.2 µM.

Molecule CCCCOc1ccccc1C(=O)/C=C/c1cc(OC)cc(OC)c1 [2′-OC4H9-3,5-OCH3, 3,5-dimethoxy-2′-butoxychalcone] has a melting point of 69.5 to 70.1 °C, an IC50 [1] of 25 µM and an IC50 [2] of 7.2 ± 1.2 µM. For the same molecule, the IC50 [3] was 13 ± 1 µM.

In the case of COc1cc(/C=C/C(=O)c2ccccc2O)cc(OC)c1 [2′-OH-3,5-OCH3, 3,5-dimethoxy-2′-hydroxychalcone], the melting point is reported as 110.2 to 110.9 °C, the IC50 [1] is reported as 20 µM and the IC50 [2] is reported as 3.8 ± 0.9 µM. The IC50 [3] was 8.1 ± 0.8 µM.

With COc1ccc(C(=O)/C=C/c2cccc(N(C)C)c2)c(OC)c1OC [3-N(CH3)2-2′,3′,4′-OCH3, 3-dimethylamino-2′,3′,4′-trimethoxychalcone] the melting point was 87.2 to 87.9 °C, the IC50 [1] was 12 µM and the IC50 [2] was 20 ± 3 µM. For the same molecule, the IC50 [3] was 26 ± 1 µM.

In the case of COc1ccc(C(=O)/C=C/c2cccc([N+](=O)[O-])c2)c(OC)c1OC [3-NO2-2′,3′,4′-OCH3, 3-nitro-2′,3′,4′-trimethoxychalcone], the melting point is reported as 130.1 to 130.7 °C, the IC50 [1] is reported as 5.5 µM and the IC50 [2] is reported as 17 ± 2 µM. For the same molecule, the IC50 [3] was 36 ± 2 µM.

COc1cc(/C=C/C(=O)c2cccc(N(C)C)c2)cc(OC)c1 [3′-N(CH3)2-3,5-OCH3, 3,5-dimethoxy-3′-dimethylaminochalcone] gave a melting point of 81.8 to 82.6 °C, an IC50 [1] of 29 µM and an IC50 [2] of 5.8 ± 0.7 µM. The IC50 [3] was 5 ± 0.2 µM.

In the case of COc1cc(/C=C/C(=O)c2cccc(O)c2)cc(OC)c1 [3′-OH-3,5-OCH3, 3,5-dimethoxy-3′-hydroxychalcone], the melting point is reported as 126.2 to 126.8 °C, the IC50 [1] is reported as 28 µM and the IC50 [2] is reported as 3.7 ± 0.6 µM. It also gave an IC50 [3] of 3.2 ± 0.4 µM.

COc1ccc(C(=O)/C=C/c2ccc(C#N)cc2)c(OC)c1OC [4-CN-2′,3′,4′-OCH3, 4-cyano-2′,3′,4′-trimethoxychalcone] showed a melting point of 131.7 to 133 °C, an IC50 [1] of 7.6 µM and an IC50 [2] of 8.6 ± 0.9 µM. It also gave an IC50 [3] of 5.4 ± 0.3 µM.

COc1ccc(C(=O)/C=C/c2ccccc2[N+](=O)[O-])c(OC)c1OC [PH98, 2-nitro-2′,3′,4′-trimethoxychalcone] showed a melting point of 107.1 to 108 °C, an IC50 [1] of 9.3 µM and an IC50 [2] of 5.9 ± 0.4 µM. For the same molecule, the IC50 [3] was 7 ± 0.6 µM, the MIC ([5]; Helicobacter pylori, 20 strains of H. pylori, agar plate, 72 hours, read-out: MIC) was 16 µg/mL (≈ 46.6 µM) and the “strains of Helicobacter pylori inhibited” value ([5]; at a concentration of 16 μg/ml, 20 strains) was 4 out of 20. The “No. strains inhibited/No. strains tested” value ([5]; at the MIC of the same line) was 6/20.
